{"source": "patent US6969590B2", "about": "“Use of a polypeptide for treatment of pruritus in animals” (Zengen, Inc., priority 2001, dated 2005)", "key": {"[1]": {"tested_on": "histamine-induced blue weal formation", "assay": "Sparrow/Wilhelm assay: histamine-induced blue wheals", "format": "in vivo, New Zealand white rabbits", "settings": "for relative intensity of blue wheals, experimental vs control: scored 30 minutes after histamine", "excerpt": "This model relies on the principal that localized, subcutaneous injections of histamine will result in a localized increase in capillary permeability. When the test animal has been pretreated with blue dye intravenously, the localized histamine injections will elicit blue-colored wheals around the injection site. Thus, by pre-administration of an effective anti-inflammatory agent the blue color of the histamine-induced wheals will be much less pronounced, with the amount of color reduction being dependent on the relative amount and/or potency of the anti-inflammatory agent used.\nNon-molting New Zealand white rabbits were used for the Sparrow/Wilhelm assay. The skin of the rabbits back was closely clipped 1-2 days previous to the experiment, but not depilated, and the rabbits were kept warm until tested. Various amounts of the protected tripeptide Ac-Lys-Pro-Val-NH2 were injected intravenously into an ear vein approximately 15 minutes prior to intravenous injection of blue dye. Control rabbits received sham injections. Fifteen minutes following injection of the agent or sham, the rabbits received approximately 30 mg/kg of Pontamine blue dye as a 2.5% solution in 0.45% saline, into an exposed vein. Immediately following dye injections, histamine was injected intradermally in a 0.10 ml volume (1.25 mg histamine 0.1 ml volume) at several sites on each side of the spine. In all, one vertical row of six injections were made on each side of the spine. The relative intensity of the resultant blue wheals were scored by an independent observer 30 minutes after histamine injection."}, "[2]": {"tested_on": "carrageenan-induced swelling in rat paws", "assay": "Rat paw edema test", "format": "in vivo, Sprague-Dawley rats", "method": "A second in vivo bioassay for anti-inflammatory activity was conducted in which the action of the tripeptide was compared to that of hydrocortisone. In this assay, the two agents were given at similar doses and tested for their independent ability to inhibit carrageenan-induced swelling in rat paws. This assay, the rat paw edema test, was conducted generally as it is typically performed in the art, for example, as described by Winter et al. (1962), Proc. Soc. Exp. Biol. Med., 111:544 or in U.S. Pat. No. 4,150,137. Briefly, the assay was performed as follows. Each of twenty-four male Sprague-Dawley rats was assigned to one of four groups: Tripeptide treatment and controls (matched according to body weight and initial paw volume), hydrocortisone treatment and matched controls. The volume of the right rear paw of the test and control animals was determined using standard procedures and a mercury displacement volumetric technique. […] One hour later 0.5 ml of 1% lambda carrageenan in saline solution was injected into the right rear paw of the animals and the paw volume was again recorded (baseline measure). For comparison of the effects of the two treatments, paw volume of experimental animals measured at hourly intervals was expressed as a percentage of the volume change of their respective matched controls."}, "[3]": {"tested_on": "inflammation induced in the ear by picryl chloride", "assay": "Picryl chloride-induced ear swelling", "format": "in vivo, BALB/C mice", "method": "Female BALB/C mice (Simmons Laboratories), 7 weeks old, were housed at 23-25° C. in groups of no more than 5 per cage [28 cm (L)×18 cm (W)×13 cm (H)]. They were allowed to acclimatize to standard lighting and temperature conditions for at least 1 week, with food and water available ad lib, before the experiment began. Five to ten animals were randomly assigned to each treatment group each test day, and all experiments were repeated at least twice to confirm reproducibility. To reduce error due to slight differences in responses to the irritant of animals from different shipments, tests of each agent were performed as separate experiments in which experimental and control animals were drawn from the same shipment.\nIn the experiments each animal was anesthetized with 1 mg of pentobarbital sodium solution (50 mg/kg, Nembutal, Abbott Laboratories, Abbott park, Ill.). Baseline ear thickness was measured for both ears with a spring-loaded micrometer (Swiss Precision Instruments, Los Angeles, Calif.). Ear thickness was expressed in units of 10^−3 cm; the average thickness of unstimulated ears was approximately 25-30×10^−3 cm. After baseline measurements were taken, one of six solutions was injected IP. Control animals received 0.2 ml of sterile saline, and experimental animals received Ac-α-MSH (11-13)-NH2, i.e., Ac-Lys-Pro-Val-NH2), Ac[D-Lys^11] α-MSH (11-13)-NH2, Ac[D-Pro^12] α-MSH (11-13)-NH2, Ac[D-Val^13] α-MSH (11-13)-NH2 or Ac-[D-Lys^11, D-Val^13] α-MSH (11-13)-NH2 in the same volume of saline. […] The doses of the tripeptides were 10 μg ([…]), 20 μg ([…]), 40 μg (1.04×10^−7 M), and 80 μg (2.08×10^−7 M). Immediately after saline or α-MSH injection, a micropipette was used to coat both sides of each ear with 10 μl (40 μl per mouse) of a 0.5% picryl chloride (Polysciences, Warrington, Pa.) solution in acetone.\nEar thickness was remeasured 3 and 6 h after picryl chloride application. Swelling was determined by subtracting baseline thickness from the measurements for each ear at 3 and 6 h. The differences for both ears were then averaged for the final analysis.\nRepeated-measure ANOVA techniques were used to determine if there was an overall difference among group data for each peptide tested in separate experiments. In those cases in which the ANOVA yielded significant results, Dunnett's test was then used to compare the effects of peptide doses with control (saline) data for each of the two time periods, 3 and 6 h."}, "[4]": {"tested_on": "inflammation induced in the hind paw", "assay": "Kappa carrageenan-induced hind paw inflammation, spinal cord intact or transected", "format": "in vivo, BALB/c mice", "settings": "given intraperitoneally, spinal cord transection", "method": "Because surgical dissection of trigeminal structures that innervate the ear of the mouse is very difficult, tests to learn whether descending neural pathways are essential to the anti-inflammatory activity of centrally administered α-MSH peptides were performed in mice with inflammation induced in a hind paw. In these experiments, each animal was anesthetized with pentobarbital sodium solution as above. Baseline footpad thickness of both hind paws was measured with a spring-loaded micrometer (Swiss Precision Instruments, Los Angeles, Calif.). Paw thickness was expressed in units of 10^−3 cm; average thickness of unstimulated paws was 171.5×10^−3 cm across shipments of animals. Kappa carrageenan (Sigma) dissolved in saline (0.05%, 20 μl) was injected (28 gauge allergy test syringe) into one footpad, and saline (20 μl) was injected into the other. For the analyses, the increase in thickness of the control saline-injected paw of each animal was subtracted from that of the carrageenan-injected paw, to eliminate the influence of mechanical injury and volume of the injected fluid. To be certain that mice with severed spinal cords can react to anti-inflammatory agents, prednisolone (2.5 mg/mouse (IP injection)) was administered to 10 mice with spinal transection and inflammation induced by carrageenan. Treatment with the locally acting steroid reduced swelling up to 29% (average, relative to saline controls) at 4.5 h. after carrageenan.\nHowever, a standardized crushing of lumbar vertebrae with a hemostat was effective in severing the cord; no deaths were caused by this treatment. […] The experiments were limited to 4.5 h to reduce problems of bowel and bladder dysfunction. Immediately after the 4.5 h measurements all mice were killed with an overdose of sodium pentobarbital.\nBecause of the size of the experiments and the requirement for several shipments of animals over time, several experiments were performed, each with complete treatment and control groups drawn from the same shipment of mice. Omnibus analysis of variance techniques (Dynastat, Washington, D.C.) were used to test overall differences among group means. Tukey's protected t test was used to compare individual means. Probability values of <0.05 were considered significant."}, "TNF-α": {"tested_on": "TNF-α", "assay": "TNF-α production by activated N9 microglia", "format": "cell-based, murine", "settings": "microglia stimulated with LPS+IFN-γ for 24 hr, micromolar concentrations", "method": "(§1) The N9 clone of murine microglial cells was obtained by immortalization of embryonic brain cultures with the 3RV retrovirus carrying an activated v-myconcogene. N9 cells were cultured in T-75-cm^2 culture flasks (Corning, Cambridge, Mass.) and maintained at 37° C. in a humidified incubator under 5% CO2 atmosphere in RPMI 1640 supplemented with 2 mM L-glutamine, 50 U/mL penicillin G, 50 μg/mL streptomycin sulfate (GIBCO-BBL, Paisley, UK), and 10% heat-inactivated fetal bovine serum (FBS, Hyclone Lab, Inc., Logan, Utah) until experiments were performed. Cells were used between the first and the tenth passage.\n(§2) Sub-confluent microglial cells were washed twice with phosphate-buffered saline (PBS) and incubated with trypsin 0.025% and ethylenediaminetetraacetate (EDTA) 0.02% without calcium and magnesium for 3 min. at 37° C. to detach the cells from the culture flask. Cells were then resuspended in medium and incubated in 24-well tissue-culture plates at a concentration of 2×10^5 cells/mL for 16 h in a humidified incubator (37° C., 5% CO2). Growth medium was removed and cell monolayers were stimulated with 10 ng/mL lipopolysaccharide (LPS, from Escherichia coli 055:B5, Sigma Chemical Co., St. Louis, Mo.) plus 1 U/ml, murine IFN-γ (Sigma). To test effects of melanocortin peptides, concentrations (1, 10, 25, 50 and 100 μM) of α-MSH (1-13), α-MSH (11-13), and ACTH (1-24) (Sigma) were dissolved in medium and added to wells 10 min before treatment with LPS+IFN-γ. […] Viability of cells was assessed by trypan blue exclusion for each experimental condition; it was consistently >98%. […]\n(§3) TNF-α bioactivity was measured in supernatants of cell cultures by standard cytotoxicity assay using L929 cells and recombinant human TNF-α (Sigma) as standard. […] IL-6 was measured using a commercial murine enzyme-linked immunosorbent assay (ELISA: RPN 2714, Amersham, Little Chalfont, UK).\n(§4) Effects of melanocortin peptides on cytokine and NO production were evaluated by repeated measures analysis of variance followed by Dunnet's test for specific comparisons. […]"}, "IL-6": {"tested_on": "IL-6", "assay": "IL-6 production by activated N9 microglia", "format": "cell-based, murine", "settings": "microglia stimulated with LPS+IFN-γ for 24 hr, micromolar concentrations", "method": "as §1, §2, §3, §4"}, "NO2^−": {"tested_on": "NO2^−", "assay": "Nitrite (NO) production by activated N9 microglia", "format": "cell-based, murine", "settings": "microglia stimulated with LPS+IFN-γ for 24 hr, micromolar concentrations", "method": "as §1, §2\nNO is rapidly oxidized to nitrite (NO2) in culture medium, and nitrite concentration is an indicator of NO production. […] Samples were incubated at room temperature for 10 min and absorbency was measured at 540 nm with the use of a microplate reader. Nitrite concentrations were calculated using a sodium nitrite standard curve.\nas §4"}, "TNF-α and iNOS mRNA": {"tested_on": "TNF-α and iNOS mRNA", "assay": "Northern blot of TNF-α and iNOS mRNA in activated microglia", "format": "cell-based, murine", "method": "Total cellular RNA was extracted from 10^6 adherent microglial cells plated in six-well tissue culture plates (Corning). Electrophoresis of RNA samples (10 μg/lane) was performed in 1% agarose/2.2 M formaldehyde gels and the gels subsequently blotted onto nylon filters by capillary action and baked for 2 h before prehybridization. The cDNA fragments encoding murine TNF-α and mouse macrophage iNOS were ^32P-labeled using the Ready-To-Go DNA Labeling Kit (Pharmacia, Uppsala, Sweden) before hybridization of nylon filters and autoradiography. Blots were subsequently rehybridized with human glyceraldehyde-3-phosphate dehydrogenase (G-3-PDH) cDNA probe as an internal control (Clontech Laboratories, Inc., Palo Alto, Calif.)."}}, "data": [{"molecule": "Ac-Lys-Pro-Val-NH2 [Ac-α-MSH(11-13)-NH2, protected tripeptide]", "values": [{"measurement": "relative intensity of blue wheals, experimental vs control", "setting": "[1]; 0.625 ug/kg intravenously", "value": "No difference"}, {"measurement": "relative intensity of blue wheals, experimental vs control", "setting": "[1]; 1.25 ug/kg intravenously", "value": "E lighter than C"}, {"measurement": "relative intensity of blue wheals, experimental vs control", "setting": "[1]; 5 ug/kg intravenously", "value": "E lighter than C"}, {"measurement": "relative intensity of blue wheals, experimental vs control", "setting": "[1]; 10 ug/kg intravenously", "value": "E lighter than C"}, {"measurement": "lowest intravenous dose with appreciable reduction in blue weal formation", "setting": "[1]; intravenous", "value": "1.25 ug tripeptide per kg body weight"}, {"measurement": "inhibition of paw edema compared with hydrocortisone", "setting": "[2]; 100 mg/kg intraperitoneal each, hourly, after the first hour", "value": "no significant difference in the inhibition of paw edema"}, {"measurement": "% Inhibition of swelling", "setting": "[3]; 10 μg IP, 3 h", "value": 26, "unit": "%"}, {"measurement": "% Inhibition of swelling", "setting": "[3]; 10 μg IP, 6 h", "value": 25, "unit": "%"}, {"measurement": "% Inhibition of swelling", "setting": "[3]; 20 μg IP, 3 h", "value": 21, "unit": "%"}, {"measurement": "% Inhibition of swelling", "setting": "[3]; 20 μg IP, 6 h", "value": 19, "unit": "%"}, {"measurement": "% Inhibition of swelling", "setting": "[3]; 40 μg IP, 3 h", "value": 33, "unit": "%"}, {"measurement": "% Inhibition of swelling", "setting": "[3]; 40 μg IP, 6 h", "value": 26, "unit": "%"}, {"measurement": "% Inhibition of swelling", "setting": "[3]; 80 μg IP, 3 h", "value": 50, "unit": "%"}, {"measurement": "% Inhibition of swelling", "setting": "[3]; 80 μg IP, 6 h", "value": 42, "unit": "%"}, {"measurement": "overall effect on ear inflammation (ANOVA)", "setting": "[3]; 10-80 μg IP, 3 and 6 h", "value": "inhibited acute inflammation"}, {"measurement": "anti-inflammatory effect after spinal cord transection", "setting": "[4]", "value": "marked inhibitory effect on inflammation"}]}, {"molecule": "ACTH (1-24): melanocortin peptide ACTH (1-24) (SYSMEHFRWGKPVGKKRRPVKVYP; Corticotropin; UniProt P01189 138-161, looked up, fragment) [reference compound]", "values": [{"measurement": "reduction of production of TNF-α", "setting": "TNF-α", "value": 38, "unit": "%"}, {"measurement": "reduction of production of IL-6", "setting": "IL-6", "value": 65, "unit": "%"}, {"measurement": "reduction of production of NO2^−", "setting": "NO2^−", "value": 41, "unit": "%"}, {"measurement": "mRNA for TNF-α and iNOS (Northern blot)", "setting": "TNF-α and iNOS mRNA", "value": "inhibition of mRNA transaction for TNF-α and iNOS"}]}, {"molecule": "C[C@]12CCC(=O)C=C1CC[C@@H]1[C@@H]2[C@@H](O)C[C@@]2(C)[C@H]1CC[C@]2(O)C(=O)CO", "note": "[hydrocortisone, reference compound]", "values": [{"measurement": "inhibition of paw swelling in the first hour", "setting": "[2]; 100 mg/kg intraperitoneal, first hour", "value": "markedly inhibited swelling"}]}]}
